Test results taken from PubChem BioAssay (NCI).
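Tested at 5 concentrations; 48 h exposure; 96-well plates; endpoints linearly interpolated, else capped at highest concentration. The concentration for 50% growth inhibition is given as GI50. The concentration for full growth arrest is given as TGI.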

Tests used:
Assay in all cases: NCI-60 cell line screen, 48 h
HOP-62 NSCLC = test system: HOP-62 NSCLC
RXF 393 renal = test system: RXF 393 renal
HCT-15 colon = test system: HCT-15 colon
ACHN renal = test system: ACHN renal
IGROV1 ovarian = test system: IGROV1 ovarian
CAKI-1 renal = test system: CAKI-1 renal
NCI-H226 lung = test system: NCI-H226 lung
U251 CNS = test system: U251 CNS
MOLT-4 leukemia = test system: MOLT-4 leukemia
CCRF-CEM leukemia = test system: CCRF-CEM leukemia

| SMILES | GI50 (HOP-62 NSCLC) | TGI (HOP-62 NSCLC) | GI50 (RXF 393 renal) | TGI (RXF 393 renal) | GI50 (HCT-15 colon) | TGI (HCT-15 colon) | GI50 (ACHN renal) | TGI (ACHN renal) | GI50 (IGROV1 ovarian) | TGI (IGROV1 ovarian) | GI50 (CAKI-1 renal) | TGI (CAKI-1 renal) | GI50 (NCI-H226 lung) | TGI (NCI-H226 lung) | GI50 (U251 CNS) | TGI (U251 CNS) | GI50 (MOLT-4 leukemia) | TGI (MOLT-4 leukemia) | GI50 (CCRF-CEM leukemia) | TGI (CCRF-CEM leukemia) |
| --- | --- | --- | --- | --- | --- | --- | --- | --- | --- | --- | --- | --- | --- | --- | --- | --- | --- | --- | --- | --- |
| CCN(CC)CCOc1ccc2c(C)c(C(=O)OC)oc2c1C(=O)/C=C/c1ccc(OC)cc1 | 28.5 µM | > 55.6 µM | 13.8 µM | 31.3 µM | 1.31 µM | 3.57 µM | 1.85 µM | 5.25 µM | 0.246 µM | 2.75 µM | 3.82 µM | 10.7 µM | 25.3 µM | 44.9 µM | 1.75 µM | 4.44 µM | 1.54 µM | 6.58 µM | 1.35 µM | 4.52 µM |
| O=c1cccccc1[O-].O=c1cccccc1[O-].O=c1cccccc1[O-].[Sm+3] | 37.1 µM | > 100 µM | – | 53.6 µM | – | > 100 µM | – | > 100 µM | – | > 100 µM | – | > 100 µM | – | > 100 µM | 13.8 µM | > 100 µM | – | > 100 µM | – | > 100 µM |
| Nc1ccc(C(=O)/C=C/c2ccccc2O)cc1 | – | > 100 µM | – | > 100 µM | – | > 100 µM | – | > 100 µM | – | > 100 µM | – | > 100 µM | – | > 100 µM | – | > 100 µM | – | > 100 µM | – | > 100 µM |
| CC1CC(C)C(C(O)CC2CC(=O)N(c3ccccc3)C(=O)C2)C(O)C1 (configuration not stated) | – | > 100 µM | – | > 100 µM | – | – | – | > 100 µM | – | > 100 µM | – | > 100 µM | – | > 100 µM | – | > 100 µM | – | > 100 µM | – | > 100 µM |
| COc1cc(/C=C2\C(=O)N(C)c3ccccc32)cc(OC)c1OC | 20.2 µM | 54 µM | 0.206 µM | 5.75 µM | 10.3 µM | 85.5 µM | 14.7 µM | 62.8 µM | 7.52 µM | 53.4 µM | 17.1 µM | 80.9 µM | 19.1 µM | 52.4 µM | 7.49 µM | 41.7 µM | 12 µM | 74.3 µM | 5.42 µM | 87.9 µM |
| c1cncc(C2ONC3=NCCN32)c1 (configuration not stated) | 30 µM | 91.1 µM | 20.9 µM | 96.3 µM | 11.5 µM | 54.7 µM | 8 µM | 38.3 µM | 24 µM | > 100 µM | 8.92 µM | 42.2 µM | 20 µM | 68.7 µM | 16.5 µM | 64.5 µM | 28.4 µM | 56.6 µM | 21 µM | 56.6 µM |
| COC(=O)c1ccc2[nH]c(O)c(C(=Nc3ccc(N(C)C(=O)CN4CCN(C)CC4)cc3)c3ccccc3)c2c1 | 2.1 µM | 13 µM | 0.422 µM | 1.69 µM | 1.77 µM | 8.4 µM | 1.13 µM | 4.12 µM | 0.297 µM | 1.83 µM | 0.21 µM | 1.25 µM | 0.993 µM | 4.99 µM | – | – | 0.389 µM | 4.56 µM | 0.666 µM | > 100 µM |
| COc1cc(N(CCC#N)CCC#N)ccc1/C(N=Nc1ccc(C(=O)O)cc1)=N/NC(=O)c1cc(Br)ccc1O | – | – | 66.3 µg/mL | > 150 µg/mL | 35.8 µg/mL | 95 µg/mL | 108 µg/mL | > 150 µg/mL | 78.1 µg/mL | > 150 µg/mL | 130 µg/mL | > 150 µg/mL | 53.2 µg/mL | > 150 µg/mL | > 150 µg/mL | > 150 µg/mL | 67.5 µg/mL | > 150 µg/mL | 82.4 µg/mL | > 150 µg/mL |
